Results as given in paper PMC11134608, “UBR5 forms ligand-dependent complexes on chromatin to regulate nuclear hormone receptor stability” (Molecular cell, 2023).

Experiments:
ER [1] = assay: ER degradation after RNF111 or UBR5 knockdown (reporter K562; T47D western); format: cell-based, human; details: K562 ER-GFP, shUBR5 / sgRNF111, Figure S8C, D
Method: Cells were analyzed for GFP vs mCherry expression.
Protein concentration was quantified via Pierce BCA Protein Assay Kit (ThermoFisher, 23225), and equal amounts of lysates were run on either SDS-PAGE 3–8% Tris-Acetate or 4–12% Bis-Tris Protein Gels (NuPAGE, ThermoFisher), then transferred to a PVDF membrane (Biorad, Wet Transfer System). Membranes were blocked for 30 minutes to 1 hour at room temperature in Odyssey Blocking Buffer/PBS (LI-COR Biosciences), and incubated with primary antibodies at 4 °C overnight. Stained membranes were washed three times in Tris-buffered saline with Tween 20 (TBS-T) and incubated for 1 hour at room temperature with secondary IRDye-conjugated antibodies (LI-COR Biosciences). Membranes were washed three times in TBS-T before imaging (Odyssey Imaging System, LI-COR Biosciences).

ER and UBR5 = assay: Co-immunoprecipitation of ER-GFP and UBR5 in K562; format: cell-based, human; details: K562 ER-GFP, with MG132, 16 h
Description: Blotting was done as described above.
Fulvestrant GDC-0927 Elacestrant Giredestrant Camizestrant Amcenestrant […]
log2 Ratio log2 Ratio log2 Ratio log2 Ratio log2 Ratio log2 Ratio […]
Amcenestrant Camizestrant GiredestrantBrilanestrant Fulvestrant ElacestrantAmcenestrant Camizestrant Giredestrant Brilanestrant […]
50 FulvestrantBrilanestrant
Figure S8. Non-endogenousligands recruitdifferent E3 ligases to induce ER degradation,Related to Figure 6 […]
VHL are highlighted in red. (C) Degradation (GFP/mCherry) of ER-GFP in K562 reporter cell lines treated with shRNAs targeting UBR5 and the specified SERDs or ER PROTACs. (D) Degradation (GFP/mCherry) of ER-GFP in K562 reporter cell lines treated with sgRNAs targeting RNF111 and the specified SERDs or ER PROTACs. (E) Western blots of T47D cells […]
treated with or without Brilanestrant. (G) Bioluminescence Resonance Energy Transfer (BRET) assay of ER, treated +/- fulvestrant or brilanestrant. (n=6 two sided t-test) (H) Western blots of ER co-immunoprecipitations from K562 ER-GFP reporter cells treated with brilanestrant and MG132 for 16 hours, and blotted with antibodies specific for GFP, and UBR5 as indicated. NS, not […]

[2] = tested on: ER reporter (E3 ligase dependence); assay: Targeted CRISPR screens, ER reporter K562 cells: E3 ligase used; format: cell-based, human; details: for E3 ligase used for ER degradation: K562 ER reporter, CRISPR screen; for E3 Ligase (Table S2): Supplemental Table S2
Method: To characterize the UPS pathway components involved in SERD-induced ER degradation, we performed CRISPR screens with our ER reporter in the presence multiple SERDs: fulvestrant, GDC-0927, elacestrant, giredestrant, camizestrant, amcenestrant, AZD-9496, brilanestrant, and LSZ-102. […] Taken together, these findings indicate that different classes of SERDs engage distinct ubiquitin ligases and degradation pathways to target ER.
The UPS and tiling CRISPR functional genomics screen was performed following previously described methods.[22] Briefly, the UPS CRISPR library targets 713 E1, E2, E3 ubiquitin ligases, and deubiquitinases and includes controls genes with a total of 2852 guide RNAs, cloned into the pXPR003 backbone. The UBR5 Tiling screen was created by CRISPR-SURF.[29] Viruses were produced in a T-175 format and ten percent by volume of the library virus was added to reporter cell lines in triplicates for transduction. Transduced cells were allowed to recover and expand for nine days, then treated with indicated ligand. Top and bottom 5% of cells by GFP signal were sorted for a total of at least 100,000 cells per replicate. Samples were processed as previously described.[22]
Reporter cell lines were treated with ATRA or 9-cis RA, and then sorted into four populations by eGFP/mCherry fluorescence ratios (Gates A-D), corresponding to the bottom and top 5–10% respectively (Figure S1D).[22],[23] Sorted cells were pelleted, lysed, and processed according to previous studies.[22] Briefly sgRNAs were amplified in two PCRs via Titanium Taq (Takara Bio 639210), Titanium Taq Buffer and 800uM dNTP mix and eight staggered forward primers. The first PCR also contained 200 nM SBS3-Stagger-pXPR003 forward primer and 200 nM SBS12-pXPR003 reverse primer (cycles: 5 minutes at 94°C, 15 × (30 sec at 94°C, 15 sec at 58°C, 30 sec at 72°C), 2 minutes at 72°C). Illumina adapters and barcodes were added in the second PCR (200 nM P5-SBS3 forward primer, 200 nM P7-barcode-SBS12 reverse primer). Samples were pooled and purified by agarose gel-electrophoresis (Qiagen) and NaOAc/isopropanol precipitation. Amplified guides were quantified by next-generation sequencing (Genomics Platform, Broad Institute), and analyzed for enrichment in Gate A over Gate D, representing degradation rescue.

ER reporter = ER reporter degradation; format: cell-based, human; details: 1 μM (legend, SERDs)
Method: Reporter cell lines were seeded in triplicate at a density of 1 million cells/ml in 100 μl per well in a 96 well plate and measured once. Ligand was added by Digital Dispenser (Tecan), and incubated at 37°C for the appropriate time before reading by flow cytometry. Cells were analyzed for GFP vs mCherry expression. GFP expression was normalized to mCherry signal and ligand treatments were compared to DMSO controls.

ER [3] = details: cited from earlier work
Description: SERDs are a class of molecules targeting the ER for the treatment of breast cancer. […] Given that UBR5 is similarly recruited to the NR hydrophobic cleft, we hypothesized that fulvestrant and other SERDs may employ a different mechanism for ER degradation. […] One of the best understood SERDs, fulvestrant, drastically remodels the hydrophobic cleft[16],[17] in a manner incompatible with UBR5 or NCOA binding. […] Strikingly, this correlates with clinical utility, hallmarked by the wide use of fulvestrant and recent approval of elacestrant,[53] both of which employ RNF111, in contrast to UBR5 SERDs (Table S2), none of which have been approved for clinical use. The heterogeneity of ER transcriptional pro ...

ER and RNF111 [4] = assay: Co-immunoprecipitation of FLAG-RNF111 and ER-GFP in 293T; details: ± MG132
Method: (B) ER reporter degradation following 1 μM of specified SERD treatment. […] UBR5 is highlighted in blue, RNF111, CRBN, VHL are highlighted in red. (D) Western blots of T47D cells transduced with sgRNAs against RNF111 treated with or without fulvestrant. […] (NS, not significant, *p < 0.05, **p < 0.005, ***p < 0.0005, ****p < 0.00005, error bars represent SEM.)
Reporter cells (up to 100 million) were treated with ligand (ATRA, dexamethasone) and allowed to incubate for different time points. […] Lysates were incubated with GFP-Trap Magnetic Agarose beads (ChromoTek, GTMA-20) overnight at 4°C on a rotator. Beads were magnetically removed and washed three times with Pierce IP Lysis Buffer with ligand added before boiling in 1x NuPAGE LDS Sample Buffer (ThermoFischer, NP0007). […] Experiments were repeated and representative images are shown.

ER and RNF111 [5] = assay: BRET assay of RNF111 and ER; format: cell-based, human
Description: Bioluminescence resonance energy transfer (BRET) experiments were done using the NanoBRET PPI kit (Promega, N1821) according to manufacturer’s instructions.

Row | SMILES | regulated class of ER degradation (RNF111 or UBR5) (ER [1]) | ER and UBR5 interaction by co-immunoprecipitation (ER and UBR5) | E3 ligase used for ER degradation [2] | E3 Ligase (Table S2) [2] | ER reporter degradation (ER reporter) | ER degradation (literature) (ER [3]; ref [17], [53]) | ER transcriptional profile following SERD treatment (ER [3]; ref [17],[55]) | effect on helix 12 and ER hydrophobic cleft (ER [3]; ref [54]) | association of RNF111 with ER by co-immunoprecipitation (ER and RNF111 [4]) | ER-RNF111 BRET, significance (mBU) (ER and RNF111 [5]; Figure S8G, n = 6 two sided t-test) | association of RNF111 with ER by BRET (ER and RNF111 [5]; n = 6)
1 | CC/C(=C(/c1ccc(/C=C/C(=O)O)cc1)c1ccc2[nH]ncc2c1)c1ccc(F)cc1Cl [brilanestrant] | UBR5 Regulated | increased ER and UBR5 interactions | required UBR5 for degradation | UBR5 | induced ER reporter degradation | – | – | – | – | – | –
2 | C[C@]12CC[C@@H]3c4ccc(O)cc4C[C@@H](CCCCCCCCC[S+]([O-])CCCC(F)(F)C(F)(F)F)[C@H]3[C@@H]1CC[C@@H]2O (stereo partly drawn) [fulvestrant] | RNF111 Regulated | – | employed a different E3 ligase, RNF111 | RNF111 | induced ER reporter degradation | lead to ER degradation | most antagonistic of tested SERDs | destabilize helix 12 and block the ER hydrophobic cleft, preventing coactivation | induces association of RNF111 with ER | * (*p < 0.05) | induces association of RNF111 with ER
